Assay results taken from patent US4329453A, “Cephalosporin antibiotic” (Glaxo Group Limited, priority 1979, dated 1982).
Structures can show the parent of a compound that is named as a salt.

Assays:
bacteria [1] = experiment: antibiotic activity in vitro (broad spectrum); type: cell-based
indole-positive Proteus = experiment: activity against indole-positive Proteus; type: cell-based
Serratia = experiment: activity against Serratia; type: cell-based
Providence = experiment: activity against Providence; type: cell-based
Pseudomonas organisms = experiment: activity against Pseudomonas organisms; type: cell-based
[2] = distribution and levels in small rodents after subcutaneous injection; type: in vivo
gram-negative bacteria = experiment: experimental infections in mice with gram-negative bacteria; type: in vivo
Pseudomonas aeruginosa = experiment: experimental infections in mice with Pseudomonas aeruginosa; type: in vivo
[3] = acute toxicity tests in mice; conditions: mouse, in vivo
nephrotoxicity in rats = type: in vivo; conditions: dosages of 2.0 g/kg
early clinical results = type: in vivo, human
bacteria [4] = conditions: as described in U.K. Patent Specification No. 2025398; cited from earlier work
gram-negative organisms = conditions: as described in U.K. Patent Specification No. 2025398; cited from earlier work
[5] = system: β-lactamase-producing gram-negative strains; conditions: as described in U.K. Patent Specification No. 2025398; cited from earlier work
[6] = especially at elevated temperatures, U.K. Patent Specification No. 2025398; cited from earlier work
[7] = pharmacokinetic studies in human volunteers
stability = type: physicochemical
Text: These properties render the hydrate of value in pharmaceutical use.
The salts for use in the preparation of the new pentahydrate according to the invention may be prepared by a process disclosed in the above-mentioned U.K. Patent Specification No. 2025398, i.e. by a process corresponding to the method above mentioned.

pathogenic bacteria = experiment: antibiotic properties of the crystalline pentahydrate; type: cell-based; conditions: compared with compound (I)

SMILES: CC(C)(O/N=C(\C(=O)N[C@@H]1C(=O)N2C(C(=O)[O-])=C(C[n+]3ccccc3)CS[C@H]12)c1csc(N)n1)C(=O)O [ceftazidime, (6R,7R)-7-[(Z)-2-(2-aminothiazol-4-yl)-2-(2-carboxyprop-2-oxyimino)acetamido]-3-(1-pyridiniummethyl)ceph-3-em-4-carboxylate]
- bactericidal action (bacteria [1]; at concentrations close to the minimum inhibitory concentration): rapidly bactericidal
- effect of human serum on antibacterial properties (bacteria [1]; human serum): not impaired by human serum
- effect of increased inocula (bacteria [1]; increased inocula): low
- activity against indole-positive Proteus (indole-positive Proteus): excellent activity
- activity against Serratia (Serratia): excellent activity
- activity against Providence (Providence): excellent activity
- activity against Pseudomonas organisms (Pseudomonas organisms): excellent activity
- distribution in the bodies of small rodents [2]: well distributed
- levels after subcutaneous injection ([2]; subcutaneous injection): useful therapeutic levels
- treatment of experimental infections with gram-negative bacteria (gram-negative bacteria): successfully treated
- protection against strains of Pseudomonas aeruginosa (Pseudomonas aeruginosa): excellent protection
- protection compared with treatment with an aminoglycoside such as amikacin (Pseudomonas aeruginosa; versus amikacin): comparable
- LD50 [3]: > 6000 mg/kg
- nephrotoxicity (nephrotoxicity in rats): No nephrotoxicity has been observed
- antibiotic properties in the clinic (early clinical results): reproduces in the clinic the excellent antibiotic properties
- broad spectrum antibiotic activity (bacteria [4]): broad spectrum antibiotic activity
- activity against gram-negative organisms (gram-negative organisms): unusually high activity
- activity against β-lactamase-producing gram-negative strains [5]: unusually high activity
- stability of amorphous solid [6]: not particularly satisfactory
- pharmacokinetic properties [7]: good pharmacokinetic properties
- serum half-life [7]: long
- serum levels after injection ([7]; injection): high and long lasting serum levels

SMILES: CC(C)(O/N=C(\C(=O)N[C@@H]1C(=O)N2C(C(=O)[O-])=C(C[n+]3ccccc3)CS[C@H]12)c1csc(N)n1)C(=O)O [bishydrochloride, (6R,7R)-7-[(Z)-2-(2-Aminothizol-4-yl)-2-(2-carboxyprop-2-oxyimino)acetamidol]-3-(1-pyridiniummethyl)ceph-3-em-4-carboxylate bishydrochloride]
- stability of crystalline bishydrochloride (stability; crystallised from acetone and formic acid): highly stable

SMILES: CC(C)(O/N=C(\C(=O)N[C@@H]1C(=O)N2C(C(=O)[O-])=C(C[n+]3ccccc3)CS[C@H]12)c1csc(N)n1)C(=O)O [crystalline pentahydrate, (6R, 7R)-7-[(Z)-2-(2-aminothiazol-4-yl)-2-(2-carboxyprop-2-oxyimino)acetamido]-3-(1-pyridiniummethyl)ceph-3-em-4-carboxylate pentahydrate]
- crystallinity and stability (quality) (stability; new hydrate): superior quality
- stability on storage (stability; stored at 50° C. for an extended period): remarkably stable
- antibiotic properties (pathogenic bacteria): exhibits the antibiotic properties of the above-mentioned compound (I)
